Columns and labels:
[1] = tested on: OVCAR-8 (Ovarian Carcinoma); test: Bliss excess, mean over the matrix (fraction); higher = more synergy
Procedure, shortened: (§1)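 Bliss excess equals the observed combination effect minus the expected value EA + EB − EA·EB, where EA and EB are the effects of each agent alone. Combination Emax is the second-highest inhibition within the matrix. Inhibition was scaled from CellTiter-Glo 2.0 luminescence, with 0 set by vehicle wells and 1 by blank wells, after 72 hours of two-drug dosing of cells plated in 1536-well plates.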

[2] = tested on: SU-DHL-6 (B-Cell Non-Hodgkin's Lymphoma); test: as above
Procedure, shortened: as §1

[3] = tested on: SW1116 (Colorectal Carcinoma); test: as above
Procedure, shortened: as §1

[4] = tested on: HARA (Squamous Cell Lung Carcinoma); test: as above
Procedure, shortened: as §1

[5] = tested on: EN (Endometrial Carcinoma); test: combination Emax (second highest fraction inhibited in the dose matrix, 72 h); higher = more inhibition; extreme values may be limits of the assay
Procedure, shortened: as §1

[6] = tested on: 639-V (Bladder Carcinoma); test: as above
Procedure, shortened: as §1

[7] = tested on: CAPAN-1 (Pancreatic Carcinoma); test: as above
Procedure, shortened: as §1

NB14 (Neuroblastoma) = test: as above
Procedure, shortened: as §1

[8] = tested on: PCI-30 (Head and Neck Carcinoma); test: as above
Procedure, shortened: as §1

[9] = tested on: SUP-T1 (T-Lymphoblastic Leukemia); test: as above
Procedure, shortened: as §1

COLO-829 (Melanoma) = test: as above
Procedure, shortened: as §1

[10] = tested on: KYSE-410 (Esophageal Squamous Cell Carcinoma); test: as above
Procedure, shortened: as §1

SH-4 (Melanoma) = test: as above
Procedure, shortened: as §1

[11] = tested on: SK-OV-3 (Ovarian Carcinoma); test: as above
Procedure, shortened: as §1

NCI-H2461 (Mesothelioma) = test: as above
Procedure, shortened: as §1

[12] = tested on: SW1116 (Colorectal Carcinoma); test: as above
Procedure, shortened: as §1

[13] = tested on: UMC-11 (Other Solid Carcinomas); test: as above
Procedure, shortened: as §1

[14] = tested on: TE-4 (Esophageal Squamous Cell Carcinoma); test: as above
Procedure, shortened: as §1

[15] = tested on: HARA (Squamous Cell Lung Carcinoma); test: as above
Procedure, shortened: as §1

[16] = tested on: HCC-15 (Squamous Cell Lung Carcinoma); test: as above
Procedure, shortened: as §1

Row | Compound | Bliss excess [1] | Bliss excess [2] | Bliss excess [3] | Bliss excess [4] | combination Emax [5] | combination Emax [6] | combination Emax [7] | combination Emax (NB14 (Neuroblastoma)) | combination Emax [8] | combination Emax [9] | combination Emax (COLO-829 (Melanoma)) | combination Emax [10] | combination Emax (SH-4 (Melanoma)) | combination Emax [11] | combination Emax (NCI-H2461 (Mesothelioma)) | combination Emax [12] | combination Emax [13] | combination Emax [14] | combination Emax [15] | combination Emax [16]
1 | CN(CCO)CC[C@H](CSc1ccccc1)Nc1ccc(S(=O)(=O)NC(=O)c2ccc(N3CCC([C@@H](O)c4ccccc4-c4ccc(Cl)cc4)CC3)cc2)cc1S(=O)(=O)C(F)(F)F [AZD4320] + C[C@@H]1COCCN1C2=NC(=NC(=C2)C3(CC3)[S@](=N)(=O)C)C4=C5C=CNC5=NC=C4 [AZD6738] (first compound max 1 µM, 7x7, partner max 10 µM) | -0.0222 | -0.0311 | -0.0406 | -0.0319 | 0.69 | 0.665 | 0.724 | 1 | 0.653 | 0.858 | 0.213 | 0.421 | 0.409 | 0.66 | 0.838 | 0.375 | 0.806 | 0.691 | 0.884 | 0.94
2 | CN(CCO)CC[C@H](CSc1ccccc1)Nc1ccc(S(=O)(=O)NC(=O)c2ccc(N3CCC([C@@H](O)c4ccccc4-c4ccc(Cl)cc4)CC3)cc2)cc1S(=O)(=O)C(F)(F)F [AZD4320] + Cc1cc2ncnn2cc1Nc1ncc2c(n1)n(C1CCOCC1)c(=O)n2C [AZD7648] (first compound max 1 µM, 7x7, partner max 10 µM) | -0.049 | -0.0099 | -0.0359 | -0.0133 | 0.304 | 0.208 | 0.161 | 0.966 | 0.178 | 0.416 | 0.0921 | 0.134 | 0.16 | 0.305 | 0.293 | 0.117 | 0.712 | 0.173 | 0.244 | 0.936
3 | CN(CCO)CC[C@H](CSc1ccccc1)Nc1ccc(S(=O)(=O)NC(=O)c2ccc(N3CCC([C@@H](O)c4ccccc4-c4ccc(Cl)cc4)CC3)cc2)cc1S(=O)(=O)C(F)(F)F [AZD4320] + Cn1cnc2c(F)c(Nc3ccc(Br)cc3Cl)c(C(=O)NOCCO)cc21 [Selumetinib] (first compound max 1 µM, 7x7, partner max 3 µM) | 0.0974 | -0.0145 | 0.0737 | 0.0265 | 0.29 | 0.978 | 0.802 | 1 | 0.224 | 0.872 | 0.601 | 0.391 | 0.955 | 0.258 | 0.328 | 0.599 | 0.467 | 0.308 | 0.219 | 1
4 | COc1nnc2ccc(N3CCC(c4ccc(OCCN5CCN(C)C(=O)[C@H]5C)cc4)CC3)nn12 [AZD5153] + C=CCn1c(=O)c2cnc(Nc3ccc(N4CCN(C)CC4)cc3)nc2n1-c1cccc(C(C)(C)O)n1 [AZD1775] (first compound max 1 µM, partner max 1 µM) | -0.0631 | -0.0656 | -0.0506 | -0.0899 | 0.525 | 0.714 | 0.549 | 1 | 0.395 | 0.821 | 0.283 | 0.491 | 0.65 | 0.506 | 0.655 | 0.397 | 0.9 | 0.892 | 0.928 | 0.674
5 | COc1nnc2ccc(N3CCC(c4ccc(OCCN5CCN(C)C(=O)[C@H]5C)cc4)CC3)nn12 [AZD5153] + CC1(C)CCC(CN2CCN(c3ccc(C(=O)NS(=O)(=O)c4ccc(NCC5CCOCC5)c([N+](=O)[O-])c4)c(Oc4cnc5[nH]ccc5c4)c3)CC2)=C(c2ccc(Cl)cc2)C1 [Venetoclax] (first compound max 1 µM, 7x7, partner max 1 µM) | 0.0035 | 0.0401 | -0.036 | -0.0617 | 0.289 | 0.582 | 0.335 | 0.761 | 0.344 | 0.745 | 0.226 | 0.266 | 0.607 | 0.383 | 0.517 | 0.353 | 0.769 | 0.27 | 0.654 | 0.329
6 | COc1nnc2ccc(N3CCC(c4ccc(OCCN5CCN(C)C(=O)[C@H]5C)cc4)CC3)nn12 [AZD5153] + CCN(CCO)CCCOc1ccc2c(Nc3cc(CC(=O)Nc4cccc(F)c4)[nH]n3)ncnc2c1 [AZD2811] (first compound max 1 µM, 7x7, partner max 1 µM) | -0.0131 | -0.0215 | -0.0632 | -0.0548 | 0.454 | 0.681 | 0.353 | 0.858 | 0.41 | 0.786 | 0.3 | 0.313 | 0.613 | 0.376 | 0.592 | 0.397 | 0.843 | 0.467 | 0.679 | 0.74
